According to PubChem BioAssay (NCI):
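Following 48 hours of exposure in 96-well plates, responses at five concentrations were used to interpolate endpoints linearly. Definition used: TGI = concentration required for complete inhibition of growth.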

Tests used:
Assay in all cases: NCI anticancer screen, dose series, 48 h
KM12 colon = test system: KM12 colon
CAKI-1 renal = test system: CAKI-1 renal
HCT-116 colon = test system: HCT-116 colon
OVCAR-8 ovarian = test system: OVCAR-8 ovarian
SK-MEL-2 melanoma = test system: SK-MEL-2 melanoma
NCI-H226 lung = test system: NCI-H226 lung
SNB-75 CNS = test system: SNB-75 CNS
EKVX NSCLC = test system: EKVX NSCLC
BT-549 breast = test system: BT-549 breast
NCI-H23 lung = test system: NCI-H23 lung
MDA-N = test system: MDA-N
RPMI-8226 leukemia = test system: RPMI-8226 leukemia
A549 NSCLC = test system: A549 NSCLC
SK-MEL-5 melanoma = test system: SK-MEL-5 melanoma
CCRF-CEM leukemia = test system: CCRF-CEM leukemia
HT29 colon = test system: HT29 colon
MDA-MB-231 breast = test system: MDA-MB-231 breast
SN12C renal = test system: SN12C renal
HCC-2998 colon = test system: HCC-2998 colon
LOX IMVI melanoma = test system: LOX IMVI melanoma
K-562 leukemia = test system: K-562 leukemia
ACHN renal = test system: ACHN renal
RXF 393 renal = test system: RXF 393 renal
IGROV1 ovarian = test system: IGROV1 ovarian
M14 melanoma = test system: M14 melanoma
UO-31 renal = test system: UO-31 renal
UACC-62 melanoma = test system: UACC-62 melanoma
HOP-92 NSCLC = test system: HOP-92 NSCLC
OVCAR-5 ovarian = test system: OVCAR-5 ovarian
HL-60(TB) leukemia = test system: HL-60(TB) leukemia
HOP-62 NSCLC = test system: HOP-62 NSCLC
OVCAR-3 ovarian = test system: OVCAR-3 ovarian
MDA-MB-435 = test system: MDA-MB-435
NCI-H522 lung = test system: NCI-H522 lung
T-47D breast = test system: T-47D breast
PC-3 prostate = test system: PC-3 prostate
OVCAR-4 ovarian = test system: OVCAR-4 ovarian
MALME-3M melanoma = test system: MALME-3M melanoma
SF-539 CNS = test system: SF-539 CNS
SK-MEL-28 melanoma = test system: SK-MEL-28 melanoma
NCI/ADR-RES ovarian = test system: NCI/ADR-RES ovarian
TK-10 renal = test system: TK-10 renal
DU-145 prostate = test system: DU-145 prostate
MCF7 breast = test system: MCF7 breast
SK-OV-3 ovarian = test system: SK-OV-3 ovarian
HCT-15 colon = test system: HCT-15 colon
SR leukemia = test system: SR leukemia
NCI-H460 lung = test system: NCI-H460 lung
MOLT-4 leukemia = test system: MOLT-4 leukemia
COLO 205 colon = test system: COLO 205 colon
SNB-19 CNS = test system: SNB-19 CNS
SW-620 colon = test system: SW-620 colon
HS 578T breast = test system: HS 578T breast
UACC-257 melanoma = test system: UACC-257 melanoma
U251 CNS = test system: U251 CNS
786-0 renal = test system: 786-0 renal
SF-268 CNS = test system: SF-268 CNS
A498 renal = test system: A498 renal
SF-295 CNS = test system: SF-295 CNS

In the case of `c1cc(-c2ccsc2-c2ccsc2)cs1`, the TGI (KM12 colon) is reported as 99.7 µM, the TGI (CAKI-1 renal) is reported as over 100 µM and the TGI (HCT-116 colon) is reported as over 100 µM. The TGI (OVCAR-8 ovarian) was over 100 µM, the TGI (SK-MEL-2 melanoma) was over 59.1 µM and the TGI (NCI-H226 lung) was over 71.7 µM. It also gave a TGI (SNB-75 CNS) of over 100 µM, a TGI (EKVX NSCLC) of over 100 µM and a TGI (BT-549 breast) of over 100 µM. It also gave a TGI (NCI-H23 lung) of over 100 µM, a TGI (MDA-N) of over 72.5 µM and a TGI (RPMI-8226 leukemia) of over 100 µM. For the same molecule, the TGI (A549 NSCLC) was over 100 µM, the TGI (SK-MEL-5 melanoma) was over 100 µM and the TGI (CCRF-CEM leukemia) was over 100 µM. The TGI (HT29 colon) was over 100 µM, the TGI (MDA-MB-231 breast) was over 100 µM and the TGI (SN12C renal) was over 100 µM. For the same molecule, the TGI (HCC-2998 colon) was over 100 µM, the TGI (LOX IMVI melanoma) was over 100 µM and the TGI (K-562 leukemia) was over 100 µM. It also gave a TGI (ACHN renal) of over 100 µM, a TGI (RXF 393 renal) of over 85.5 µM and a TGI (IGROV1 ovarian) of over 100 µM. It also gave a TGI (M14 melanoma) of over 100 µM, a TGI (UO-31 renal) of over 100 µM and a TGI (UACC-62 melanoma) of over 100 µM. It also gave a TGI (HOP-92 NSCLC) of over 100 µM, a TGI (OVCAR-5 ovarian) of over 100 µM and a TGI (HL-60(TB) leukemia) of over 100 µM. The TGI (HOP-62 NSCLC) was over 100 µM, the TGI (OVCAR-3 ovarian) was over 100 µM and the TGI (MDA-MB-435) was over 82.9 µM. For the same molecule, the TGI (NCI-H522 lung) was over 100 µM, the TGI (T-47D breast) was over 100 µM and the TGI (PC-3 prostate) was over 100 µM. For the same molecule, the TGI (OVCAR-4 ovarian) was over 100 µM, the TGI (MALME-3M melanoma) was over 100 µM and the TGI (SF-539 CNS) was over 100 µM. It also gave a TGI (SK-MEL-28 melanoma) of over 100 µM, a TGI (NCI/ADR-RES ovarian) of over 100 µM and a TGI (TK-10 renal) of over 100 µM. It also gave a TGI (DU-145 prostate) of over 100 µM, a TGI (MCF7 breast) of over 100 µM and a TGI (SK-OV-3 ovarian) of over 100 µM. It also gave a TGI (HCT-15 colon) of over 100 µM, a TGI (SR leukemia) of over 74.9 µM and a TGI (NCI-H460 lung) of over 100 µM. The TGI (MOLT-4 leukemia) was over 89 µM, the TGI (COLO 205 colon) was over 100 µM and the TGI (SNB-19 CNS) was over 100 µM. For the same molecule, the TGI (SW-620 colon) was over 100 µM, the TGI (HS 578T breast) was over 100 µM and the TGI (UACC-257 melanoma) was over 100 µM. The TGI (U251 CNS) was over 100 µM, the TGI (786-0 renal) was over 100 µM and the TGI (SF-268 CNS) was over 100 µM. For the same molecule, the TGI (A498 renal) was over 100 µM and the TGI (SF-295 CNS) was over 100 µM.
